Values of other authors as cited in PMC6698139 (Bioorganic & medicinal chemistry, 2019).

System: S1PR2
Conditions: [33P]S1P competitive binding assay

Cc1cc(C(=O)Cn2cc(C#N)ccc2=O)c(C)n1Cc1ccccc1 [CYM-5520]
competition with S1P: not competitive
